From ChEMBL document CHEMBL4483862, “Open-source discovery of chemical leads for next-generation chemoprotective antimalarials” (2018)

Test system: Plasmodium berghei
Experiment: Luciferase/luciferin-expressing antifolate-resistant parasites were used to infect a culture of HepG2 cells that were pre-incubated with compounds. Infected hepatocytes emit light due to the luciferase reaction. Assay results are presented as the percent inhibition of light emission compared to control. […]
Format: functional
Details: sporozoite; for IC90: read-out: LUCIFERASE INFECTION ASSAY - IC90
[1] = read-out: LUCIFERASE INFECTION ASSAY - IC50

SMILES | IC90 [µM] | IC50 [1] [µM] | also measured
Cc1cccc(CN2CCC3(CC2)C(=O)N(Cc2ccccn2)C(=O)N3CCc2ccccc2)c1 | > 7.04 | – | IC50 (HEPG2TOX_HILL_SLOPE 1.55, HEPG2TOX_R_SQUARED 0.857, PBLUC_HILL_SLOPE 4.1, PBLUC_R_SQUARED 0.48, read-out: LUCIFERASE INFECTION ASSAY - IC50): 5.65 µM
NC(=O)NC(CC(=O)Nc1ccc2c(c1)-c1ccccc1C2)c1ccccc1 (stereo unspecified) | > 10 | – | IC50 (HEPG2TOX_HILL_SLOPE 11.3, HEPG2TOX_R_SQUARED 0.75, PBLUC_HILL_SLOPE 2.98, PBLUC_R_SQUARED 0.106, read-out: LUCIFERASE INFECTION ASSAY - IC50): 6.7 µM
CC1CCN(C(=O)COc2ccc(C(C)C)cc2Br)CC1 | 8.51 | – | IC50 (HEPG2TOX_HILL_SLOPE 9.85, HEPG2TOX_R_SQUARED 0.75, PBLUC_HILL_SLOPE 15.1, PBLUC_R_SQUARED 0.202, read-out: LUCIFERASE INFECTION ASSAY - IC50): 7.36 µM
COc1ccccc1-c1nc2c3c(C)c(C)n(CCCO)c3ncn2n1 | > 9.39 | – | IC50 (PBLUC_HILL_SLOPE 14, PBLUC_R_SQUARED 0.452, read-out: LUCIFERASE INFECTION ASSAY - IC50): 8.69 µM
CSc1sc(C(N)=S)c(C)c1C(C)=O | > 13.4 | > 13.4 | –
Cc1ccccc1NC(=S)N/N=C/c1ccccc1[N+](=O)[O-] | 3.66 | – | IC50 (HEPG2TOX_HILL_SLOPE 11.4, HEPG2TOX_R_SQUARED 0.668, PBLUC_HILL_SLOPE 15.4, PBLUC_R_SQUARED 0.358, read-out: LUCIFERASE INFECTION ASSAY - IC50): 3.17 µM
COC(=O)c1c(COC(=O)/C=C/c2ccc(OCC#N)c(OC)c2)nc2ccccc2c1-c1ccccc1 | > 10 | > 10 | –
Clc1ccc(OC2OCCOC2Oc2ccc(Cl)cc2Cc2ccccc2)c(Cc2ccccc2)c1 (stereo unspecified) | > 10 | > 10 | –
CO/N=C1\CCCc2c(C(=O)N/N=C/c3ccccc3Cl)sc(SC)c21 | 1.81 | – | IC50 (FFLUC_HILL_SLOPE 19.7, FFLUC_R_SQUARED 0.147, HEPG2TOX_HILL_SLOPE 0.857, HEPG2TOX_R_SQUARED 0.906, PBLUC_HILL_SLOPE 1.47, PBLUC_R_SQUARED 0.897, read-out: LUCIFERASE INFECTION ASSAY - IC50): 0.406 µM
COc1cccc(CNCc2nc(NCc3cccc(OC)c3)c3c(C)c(C)sc3n2)c1 | > 10 | – | IC50 (HEPG2TOX_HILL_SLOPE 3.99, HEPG2TOX_R_SQUARED 0.699, PBLUC_HILL_SLOPE 15.2, PBLUC_R_SQUARED 0.535, read-out: LUCIFERASE INFECTION ASSAY - IC50): 8.97 µM
COc1cccc(-c2noc(COC(=O)c3ccc(C)s3)n2)c1 | > 10 | > 10 | –
Clc1ccc(/N=C/c2c(Sc3ccc(Cl)cc3)nc3sccn23)cc1 | 5.29 | – | IC50 (FFLUC_HILL_SLOPE 12.3, FFLUC_R_SQUARED 0.518, HEPG2TOX_HILL_SLOPE 2.77, HEPG2TOX_R_SQUARED 0.964, PBLUC_HILL_SLOPE 5.31, PBLUC_R_SQUARED 0.509, read-out: LUCIFERASE INFECTION ASSAY - IC50): 3.5 µM
Cc1ccn2cc(C(=O)Nc3nnc(CC(C)C)s3)nc2c1 | 3.7 | – | IC50 (HEPG2TOX_HILL_SLOPE 9.95, HEPG2TOX_R_SQUARED 0.674, PBLUC_HILL_SLOPE 11.8, PBLUC_R_SQUARED 0.71, read-out: LUCIFERASE INFECTION ASSAY - IC50): 3.07 µM
COc1ccc(Cn2c(C3CC(=O)N(C)C3)nc3ccccc32)cc1 (stereo unspecified) | > 9.84 | – | IC50 (PBLUC_HILL_SLOPE 3.53, PBLUC_R_SQUARED 0.0667, read-out: LUCIFERASE INFECTION ASSAY - IC50): 8.05 µM
COc1ccc(NC(=O)c2ccc(C)c(F)c2)cc1OCc1cccnc1 | > 10 | 6.13 | –
O=C(COc1ccc(F)cc1)Nc1ccc2c(=O)c3cccc(Cl)c3oc2c1 | > 8.3 | > 8.3 | –
O=C(Nc1ccccc1)OCc1cccnc1Sc1ccc(Cl)cc1 | > 8.9 | > 8.9 | –

SMILES | IC90 [µM] | IC50 [1] [µM] | also measured
CC(C)Nc1cc(-c2ccccc2)nc2c(-c3ccccc3)cnn12 | > 10 | – | IC50 (PBLUC_HILL_SLOPE 1.35, PBLUC_R_SQUARED 0.594, read-out: LUCIFERASE INFECTION ASSAY - IC50): 2.01 µM
CC(C)N1C(=O)/C(=N\NC(=S)Nc2cccnc2)c2ccccc21 | 5.01 | – | IC50 (FFLUC_HILL_SLOPE 0.241, FFLUC_R_SQUARED 0.177, HEPG2TOX_HILL_SLOPE 1.23, HEPG2TOX_R_SQUARED 0.88, PBLUC_HILL_SLOPE 2.27, PBLUC_R_SQUARED 0.476, read-out: LUCIFERASE INFECTION ASSAY - IC50): 1.9 µM
COc1ccc2[nH]c(C)c(-c3csc(NC(=O)c4ccccn4)n3)c2c1 | > 9.06 | – | IC50 (PBLUC_HILL_SLOPE 10.6, PBLUC_R_SQUARED 0.566, read-out: LUCIFERASE INFECTION ASSAY - IC50): 7.84 µM
O=c1c2ccccc2nc(SCc2coc(-c3cccs3)n2)n1-c1ccc(Cl)cc1 | > 10 | > 10 | –
COc1cccc(N2C(=O)C=CC2=O)c1 | > 16.2 | – | IC50 (FFLUC_HILL_SLOPE 1.51, FFLUC_R_SQUARED 0.52, PBLUC_HILL_SLOPE 2.51, PBLUC_R_SQUARED 0.451, read-out: LUCIFERASE INFECTION ASSAY - IC50): 10.2 µM
C(=C(c1nc2ccccc2s1)c1nc2ccccc2s1)c1ccccn1 | > 10 | > 10 | –
CO[C@H]1[C@H](C)O[C@@H](O[C@H]2CC[C@]3(C)C4C[C@@H](O)[C@]5(C)[C@@H](C6=CC(=O)OC6)[C@@H](OC(C)=O)C[C@]5(O)C4CC[C@@H]3C2)C[C@@H]1O (stereo partly specified) | 0.626 | – | IC50 (HEPG2TOX_HILL_SLOPE 2.15, HEPG2TOX_R_SQUARED 0.965, PBLUC_HILL_SLOPE 1.44, PBLUC_R_SQUARED 0.806, read-out: LUCIFERASE INFECTION ASSAY - IC50): 0.136 µM
CCc1nnc(S)n1/N=C/c1c(C)nn(-c2ccccc2)c1Cl | 0.704 | – | IC50 (HEPG2TOX_HILL_SLOPE 1.03, HEPG2TOX_R_SQUARED 0.933, PBLUC_HILL_SLOPE 1.45, PBLUC_R_SQUARED 0.745, read-out: LUCIFERASE INFECTION ASSAY - IC50): 0.155 µM
CC(C)CNc1nn2c(-c3cccc(C(=O)N(C)C)c3)cnc2s1 | > 9.61 | – | IC50 (FFLUC_HILL_SLOPE 13.4, FFLUC_R_SQUARED 0.472, read-out: LUCIFERASE INFECTION ASSAY - IC50): > 9.61 µM
CN(C)c1cccc(-c2cnc3sc(NCCc4ccncc4)nn23)c1 | > 9.05 | > 9.05 | –
CCOC(=O)C1CCCN(CC(=O)N2N=C3/C(=C/c4ccc(Cl)cc4)CCCC3C2c2ccc(Cl)cc2)C1 (stereo unspecified) | > 10 | – | IC50 (PBLUC_HILL_SLOPE 9.1, PBLUC_R_SQUARED 0.32, read-out: LUCIFERASE INFECTION ASSAY - IC50): 7.93 µM
Cc1ccn2cc(C(=O)Nc3nc(C(C)C)cs3)nc2c1 | > 10 | – | IC50 (PBLUC_HILL_SLOPE 42, PBLUC_R_SQUARED 0.63, read-out: LUCIFERASE INFECTION ASSAY - IC50): 9.53 µM
CCOc1c(Br)cc(C2NCC(c3cccc(OC)c3OC)c3c2[nH]c2ccccc32)cc1OC (stereo unspecified) | > 10 | – | IC50 (FFLUC_HILL_SLOPE 3.42, FFLUC_R_SQUARED 0.537, read-out: LUCIFERASE INFECTION ASSAY - IC50): > 10 µM
C=CCNS(=O)(=O)c1ccc(C(=O)NCc2ccccc2OC(F)F)cc1 | > 10 | > 10 | –
O=C(Nc1nccs1)c1cc(-c2ccccc2)c(C(F)(F)F)s1 | 8.66 | – | IC50 (HEPG2TOX_HILL_SLOPE 4.77, HEPG2TOX_R_SQUARED 0.804, PBLUC_HILL_SLOPE 25.8, PBLUC_R_SQUARED 0.401, read-out: LUCIFERASE INFECTION ASSAY - IC50): 7.96 µM
N#CCCN(C(=O)CSc1nc2cc(S(=O)(=O)Nc3ccc(Cl)cc3)ccc2o1)c1ccccc1 | 7.89 | – | IC50 (PBLUC_HILL_SLOPE 1.44, PBLUC_R_SQUARED 0.751, read-out: LUCIFERASE INFECTION ASSAY - IC50): 1.72 µM
